Data taken from US20070093554A1, “AGENT FOR IMPROVING FEELING OF COLD” (priority 2005, published 2007).

Assay: Improvement in feeling of cold evaluated by Visual Analogue Scale (VAS) method after 3 weeks ingestion of tablets
Type: in vivo, human
Conditions: 6 tablets of example 1 a day for 3 weeks, normal subjects 45 to 64 years, vs tablet not containing ornithine; FIG. 2
Procedure: Before the ingestion and just after the ingestion, the improvements in feeling of cold of each subject were evaluated using Visual Analogue Scale (VAS) method.
Specifically each end of the segment has a criterion of expression. Referring to FIG. 1, each subject marked somewhere in the line, corresponding to each term of the questionnaires. The distance (mm) from the left end of the line to the marked point was measured and the difference between before and after the test was calculated. The difference by the value before the test was shown in the percentage calculated; and each average value and standard deviation for each group were calculated. […] Further, it was confirmed that there was no difference between two groups before the administration test.
Further the test was carried out under a random assignment and the comparison between the double blind parallel groups was carried out. The test of the statistically significant difference between two groups was an unpaired t-test of both side distributions using the difference between the beginning and just after the test.

In the case of NCCC[C@H](N)C(=O)O [ornithine], the “coldness of hands and feet (improvement, VAS)” value is reported as “improved remarkably”.
